ChEMBL document CHEMBL1130086, “Potent HIV protease inhibitors containing a novel (hydroxyethyl)amide isostere” (J Med Chem, 1997)

Tests used:
[1] = tested on: Human immunodeficiency virus 1; test: Inhibitory concentration against HIV-1 strain 111B in acutely infected C8166 T cells; format: functional, organism-based; conditions: Human immunodeficiency virus 1, C8166
[2] = biological target: T1, Human immunodeficiency virus type 1 protease (Human immunodeficiency virus 1, UniProt Q72874); test: Inhibitory concentration against recombinant HIV-1 protease expressed in Escherichia coli was tested by HPLC based assay
[3] = biological target: T1, Human immunodeficiency virus type 1 protease; test: binding affinity against HIV-1 protease
C8166 = test: Inhibitory concentration against HIV-2 rod strain in acutely infected C8166 T cells; format: functional, cell-based; conditions: Homo sapiens
[4] = biological target: T1, Human immunodeficiency virus type 1 protease; test: Inhibitory concentration against recombinant HIV-1 111B protease expressed from Escherichia coli was tested by HPLC based assay
[5] = biological target: T1, Human immunodeficiency virus type 1 protease; test: binding affinity against HIV-1 111B strain in protease

| SMILES | EC50 [1] | IC50 [2] | also measured |
| --- | --- | --- | --- |
| CCC(CC)NC(=O)C[C@@H](C(=O)NC[C@@H](O)[C@H](Cc1ccccc1)NC(=O)[C@@H](NC(=O)c1ccc2ccccc2n1)[C@H](C)O)C(C)(C)C | 7 nM | 3.6 nM |  |
| CC(C)[C@H](NC(=O)OCc1ccccc1)C(=O)N[C@@H](Cc1ccccc1)[C@@H](O)CNC(=O)[C@H](CC(=O)NC(C)(C)C)C(C)(C)C |  | 50 nM |  |
| CC(C)C(NC(=O)C[C@@H](C(=O)NC[C@@H](O)[C@H](Cc1ccccc1)NC(=O)OCc1ccccc1)C(C)(C)C)C(C)C |  | 58 nM |  |
| CC(C)NC(=O)C[C@@H](C(=O)NC[C@@H](O)[C@H](Cc1ccccc1)NC(=O)OCc1ccccc1)C(C)(C)C |  | 19 nM |  |
| CC(C)[C@H](NC(=O)OCc1ccccc1)C(=O)N[C@@H](Cc1ccccc1)[C@H](O)CNC(=O)C[C@@H](C(=O)NC(C)(C)C)C(C)(C)C |  | 125 nM |  |
| CC(C)[C@H](NC(=O)OCc1ccccc1)C(=O)N[C@@H](Cc1ccccc1)[C@H](O)CNC(=O)C1CCCC[C@H]1C(=O)NC(C)(C)C (some centres undefined) |  | 140 nM |  |
| CCC(CC)NC(=O)C[C@@H](C(=O)NC[C@@H](O)[C@H](Cc1ccccc1)NC(=O)[C@H](CC(N)=O)NC(=O)c1cnc2ccccc2n1)C(C)(C)C | 35 nM | 1.9 nM |  |
| CC(C)[C@H](NC(=O)OCc1ccccc1)C(=O)N[C@@H](Cc1ccccc1)[C@H](O)CNC(=O)[C@@H](CC(=O)NC(C)(C)C)C(C)(C)C |  | 25 nM |  |
| CC(C)[C@H](NC(=O)OCc1ccccc1)C(=O)N[C@@H](Cc1ccccc1)[C@H](O)CNC(=O)CCC(=O)NC(C)(C)C |  | 8250 nM |  |
| CCC(CC)NC(=O)C[C@@H](C(=O)NC[C@@H](O)[C@H](Cc1ccccc1)NC(=O)[C@@H](NC(=O)c1ccc2ccccc2n1)C(C)C)C(C)(C)C | 3.7 nM | 2.5 nM | Ki [3]: 0.0075 nM |
| CCC(CC)NC(=O)C[C@@H](C(=O)NC[C@@H](O)[C@H](Cc1ccccc1)NC(=O)[C@@H](NC(=O)OCc1ccccc1)[C@H](C)O)C(C)(C)C | 165 nM | 8.2 nM |  |
| CC(C)(C)NC(=O)C[C@@H](C(=O)NC[C@@H](O)[C@H](Cc1ccccc1)NC(=O)OCc1ccccc1)C(C)(C)C |  | 19 nM |  |
| CC(C)[C@H](NC(=O)OCc1ccccc1)C(=O)N[C@@H](Cc1ccccc1)[C@H](O)CNC(=O)[C@H](CC(=O)NC(C)(C)C)C(C)(C)C | 15 nM | 3 nM |  |
| CCCC(CCC)NC(=O)C[C@@H](C(=O)NC[C@@H](O)[C@H](Cc1ccccc1)NC(=O)OCc1ccccc1)C(C)(C)C |  | 39 nM |  |
| CCC(CC)NC(=O)C[C@@H](C(=O)NC[C@@H](O)[C@H](Cc1ccccc1)NC(=O)[C@H](CC(N)=O)NC(=O)OCc1ccccc1)C(C)(C)C | 127 nM | 3.8 nM |  |
| CC(C)[C@H](NC(=O)OCc1ccccc1)C(=O)N[C@@H](Cc1ccccc1)[C@H](O)CNC(=O)C[C@H](C(=O)NC(C)(C)C)C(C)(C)C |  | 4850 nM |  |
| CC(C)(C)[C@@H](CC(=O)Nc1ccccc1)C(=O)NC[C@@H](O)[C@H](Cc1ccccc1)NC(=O)OCc1ccccc1 |  | 14 nM |  |
| CC(C)(C)[C@@H](CC(=O)NC1CCCCC1)C(=O)NC[C@@H](O)[C@H](Cc1ccccc1)NC(=O)OCc1ccccc1 |  | 135 nM |  |
| CC(C)[C@H](NC(=O)c1ccc2ccccc2n1)C(=O)N[C@@H](Cc1ccccc1)[C@H](O)CN1CC[C@@H](OCc2ccncc2)C[C@H]1C(=O)NC(C)(C)C | 5 nM |  | EC50 (C8166): 25 nM; IC50 [4]: 4 nM; Ki [5]: 0.031 nM |
| CC(C)[C@H](NC(=O)OCc1ccccc1)C(=O)N[C@@H](Cc1ccccc1)[C@H](O)CN1CCCC[C@H]1C(=O)NC(C)(C)C |  | 62 nM |  |
| CCC(CC)NC(=O)C[C@@H](C(=O)NC[C@@H](O)[C@H](Cc1ccccc1)NC(=O)[C@@H](NC(=O)c1cnc2ccccc2n1)C(C)C)C(C)(C)C | 5.8 nM | 2.2 nM |  |
| CCC(CC)NC(=O)C[C@@H](C(=O)NC[C@@H](O)[C@H](Cc1ccccc1)NC(=O)[C@@H](NC(=O)OCc1ccccc1)C(C)C)C(C)(C)C | 9.3 nM | 2.9 nM |  |
| CCC(CC)NC(=O)C[C@@H](C(=O)NC[C@@H](O)[C@H](Cc1ccccc1)NC(=O)[C@@H](NC(=O)c1cnc2ccccc2n1)[C@H](C)O)C(C)(C)C | 13 nM | 3 nM |  |
| CCC(CC)NC(=O)C[C@@H](C(=O)NC[C@@H](O)[C@H](Cc1ccccc1)NC(=O)[C@H](CC(N)=O)NC(=O)c1ccc2ccccc2n1)C(C)(C)C | 11 nM | 2.2 nM |  |
| CCC(CC)NC(=O)C[C@@H](C(=O)NC[C@@H](O)[C@H](Cc1ccccc1)NC(=O)OCc1ccccc1)C(C)(C)C |  | 15 nM |  |
